# According to ChEMBL document CHEMBL1136449, “A new class of glycogen phosphorylase inhibitors” (Bioorg Med Chem Lett, 2003):
# Experiments:
# [1] = biological target: T1, Glycogen phosphorylase, liver form (Homo sapiens, UniProt P06737); assay: Inhibitory activity against HLGP(human liver glycogen phosphorylase)
# T1 sequence (P06737 whole entry): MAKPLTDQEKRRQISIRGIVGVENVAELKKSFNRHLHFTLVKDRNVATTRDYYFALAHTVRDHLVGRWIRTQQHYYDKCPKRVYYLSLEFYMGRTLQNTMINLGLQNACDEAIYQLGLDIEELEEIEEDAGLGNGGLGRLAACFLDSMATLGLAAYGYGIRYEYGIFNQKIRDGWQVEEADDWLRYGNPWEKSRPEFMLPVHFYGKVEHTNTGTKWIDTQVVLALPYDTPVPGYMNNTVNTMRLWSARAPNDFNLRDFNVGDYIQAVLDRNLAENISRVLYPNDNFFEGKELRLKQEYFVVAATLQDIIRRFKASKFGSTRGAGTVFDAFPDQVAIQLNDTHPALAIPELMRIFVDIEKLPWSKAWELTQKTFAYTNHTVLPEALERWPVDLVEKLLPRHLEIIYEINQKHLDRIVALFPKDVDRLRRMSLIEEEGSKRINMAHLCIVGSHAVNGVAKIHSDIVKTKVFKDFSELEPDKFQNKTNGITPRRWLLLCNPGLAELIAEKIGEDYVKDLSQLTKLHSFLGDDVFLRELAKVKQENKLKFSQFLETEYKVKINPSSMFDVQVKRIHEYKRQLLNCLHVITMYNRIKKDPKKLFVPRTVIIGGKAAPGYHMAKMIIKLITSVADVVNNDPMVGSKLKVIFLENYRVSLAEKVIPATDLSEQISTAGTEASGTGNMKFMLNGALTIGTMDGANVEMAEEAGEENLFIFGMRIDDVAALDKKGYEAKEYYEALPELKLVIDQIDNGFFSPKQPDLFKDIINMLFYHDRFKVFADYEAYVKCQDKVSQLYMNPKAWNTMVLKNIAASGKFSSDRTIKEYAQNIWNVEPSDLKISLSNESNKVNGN
# [2] = biological target: T2, Glycogen phosphorylase, muscle form (Homo sapiens, UniProt P11217); assay: Inhibitory activity against HMGP(human muscle glycogen phosphorylase)
# T2 sequence (P11217 whole entry): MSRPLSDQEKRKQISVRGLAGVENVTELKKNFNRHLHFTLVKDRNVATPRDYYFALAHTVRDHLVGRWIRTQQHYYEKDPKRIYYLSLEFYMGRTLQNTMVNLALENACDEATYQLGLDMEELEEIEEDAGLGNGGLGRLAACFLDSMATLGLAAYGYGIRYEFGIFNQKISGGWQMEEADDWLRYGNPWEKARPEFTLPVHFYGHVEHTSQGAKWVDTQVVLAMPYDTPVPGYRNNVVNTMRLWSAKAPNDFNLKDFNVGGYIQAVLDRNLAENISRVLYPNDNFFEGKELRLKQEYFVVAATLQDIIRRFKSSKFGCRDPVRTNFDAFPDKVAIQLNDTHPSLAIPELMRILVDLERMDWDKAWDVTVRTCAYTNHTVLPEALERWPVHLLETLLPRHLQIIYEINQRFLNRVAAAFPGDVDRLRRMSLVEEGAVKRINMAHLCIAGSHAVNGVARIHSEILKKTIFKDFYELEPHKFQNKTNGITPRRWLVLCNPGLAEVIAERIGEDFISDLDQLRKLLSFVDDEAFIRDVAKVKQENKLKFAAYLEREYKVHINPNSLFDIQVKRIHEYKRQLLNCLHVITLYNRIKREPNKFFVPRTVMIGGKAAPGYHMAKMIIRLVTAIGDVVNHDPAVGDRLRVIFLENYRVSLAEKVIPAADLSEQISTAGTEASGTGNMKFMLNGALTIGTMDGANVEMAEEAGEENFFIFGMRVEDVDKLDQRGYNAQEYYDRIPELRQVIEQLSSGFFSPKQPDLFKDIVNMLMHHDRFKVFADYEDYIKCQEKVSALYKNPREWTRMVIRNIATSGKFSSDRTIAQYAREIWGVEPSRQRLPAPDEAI
# [3] = biological target: T3, Glycogen phosphorylase, liver form (Rattus norvegicus, UniProt P09811); assay: Inhibitory activity against rat liver glycogen phosphorylase
# T3 sequence (P09811 whole entry): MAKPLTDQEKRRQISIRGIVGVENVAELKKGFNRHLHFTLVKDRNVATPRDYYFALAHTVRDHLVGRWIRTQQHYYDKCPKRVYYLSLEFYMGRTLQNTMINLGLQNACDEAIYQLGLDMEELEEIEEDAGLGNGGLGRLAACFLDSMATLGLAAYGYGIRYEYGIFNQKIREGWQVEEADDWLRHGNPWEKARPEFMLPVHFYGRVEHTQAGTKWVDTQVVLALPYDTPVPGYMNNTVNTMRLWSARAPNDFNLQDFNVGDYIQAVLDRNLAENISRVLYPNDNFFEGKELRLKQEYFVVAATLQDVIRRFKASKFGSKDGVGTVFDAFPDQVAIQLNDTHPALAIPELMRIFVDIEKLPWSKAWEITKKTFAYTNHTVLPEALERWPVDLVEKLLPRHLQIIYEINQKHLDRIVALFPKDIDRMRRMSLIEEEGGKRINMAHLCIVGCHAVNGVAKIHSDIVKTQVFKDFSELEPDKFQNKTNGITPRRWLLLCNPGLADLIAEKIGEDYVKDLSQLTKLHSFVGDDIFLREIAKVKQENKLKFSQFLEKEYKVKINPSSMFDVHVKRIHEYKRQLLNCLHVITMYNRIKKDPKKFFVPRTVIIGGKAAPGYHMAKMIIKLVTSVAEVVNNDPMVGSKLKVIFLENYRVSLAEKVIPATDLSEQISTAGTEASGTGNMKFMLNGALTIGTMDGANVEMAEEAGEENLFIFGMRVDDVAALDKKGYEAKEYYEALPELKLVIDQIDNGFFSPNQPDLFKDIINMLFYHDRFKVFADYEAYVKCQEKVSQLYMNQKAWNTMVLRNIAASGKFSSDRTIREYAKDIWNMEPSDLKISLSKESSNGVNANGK
# [4] = biological target: T4, Glycogen phosphorylase, liver form (Mus musculus, UniProt Q9ET01); assay: Inhibitory activity against mouse liver glycogen phosphorylase
# T4 sequence (Q9ET01 whole entry): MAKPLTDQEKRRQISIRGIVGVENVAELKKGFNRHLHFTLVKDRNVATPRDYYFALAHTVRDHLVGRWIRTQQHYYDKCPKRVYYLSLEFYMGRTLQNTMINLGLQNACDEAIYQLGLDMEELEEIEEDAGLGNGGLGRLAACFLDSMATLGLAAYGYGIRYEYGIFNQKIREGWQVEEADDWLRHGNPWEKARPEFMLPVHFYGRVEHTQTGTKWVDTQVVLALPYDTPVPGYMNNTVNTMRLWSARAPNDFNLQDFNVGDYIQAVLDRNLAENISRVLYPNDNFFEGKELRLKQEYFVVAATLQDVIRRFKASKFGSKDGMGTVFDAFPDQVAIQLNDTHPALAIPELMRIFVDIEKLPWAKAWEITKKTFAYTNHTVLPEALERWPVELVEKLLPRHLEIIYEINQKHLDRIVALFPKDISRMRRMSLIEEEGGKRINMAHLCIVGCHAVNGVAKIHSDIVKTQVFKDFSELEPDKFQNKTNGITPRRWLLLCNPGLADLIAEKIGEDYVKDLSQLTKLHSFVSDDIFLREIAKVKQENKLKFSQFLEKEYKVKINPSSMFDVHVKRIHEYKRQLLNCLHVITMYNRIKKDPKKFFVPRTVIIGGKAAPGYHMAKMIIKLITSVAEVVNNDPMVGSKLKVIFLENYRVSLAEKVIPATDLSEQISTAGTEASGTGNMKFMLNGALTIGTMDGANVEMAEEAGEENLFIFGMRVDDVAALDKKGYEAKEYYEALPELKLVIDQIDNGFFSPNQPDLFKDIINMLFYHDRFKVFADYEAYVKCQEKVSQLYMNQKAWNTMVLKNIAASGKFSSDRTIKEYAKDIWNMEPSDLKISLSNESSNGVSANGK
# [5] = Cmax in male mice after 2 mg/kg oral dose; type: ADME, organism-based; parameters: dose 2 mg/kg, route oral; conditions: mouse, in vivo
# [6] = Half-life in male mice after 1 mg/kg intravenous dose; type: ADME, organism-based; parameters: dose 1 mg/kg, route intravenous; conditions: mouse, in vivo
# [7] = Bioavailability in male mice, 2mg/kg oral and 1 mg/kg intravenous dose; type: ADME, organism-based; conditions: mouse, in vivo
Structure (SMILES),IC50 [1] [nM],IC50 [2] [nM],IC50 [3] [nM],IC50 [4] [nM],Cmax [5] [nM],half-life [6] [h],bioavailability [7] [%]
O=C(Nc1cc(F)ccc1Oc1ccc(C(=O)O)c(C(=O)O)c1)c1cc(Cl)ccn1,78,647,,,,,
O=C(Nc1cc2ccccc2cc1Oc1ccc(C(=O)O)c(C(=O)O)c1)c1ccccc1,2880,12300,,,,,
COc1ccnc(C(=O)Nc2ccccc2Oc2ccc(C(=O)O)c(C(=O)O)c2)c1,20,200,24,18,,,
O=C(Nc1ccccc1Oc1ccc(C(=O)O)c(C(=O)O)c1)c1cc([N+](=O)[O-])ccn1,3,25,,,,,
N#Cc1ccnc(C(=O)Nc2ccccc2Oc2ccc(C(=O)O)c(C(=O)O)c2)c1,16,167,19,14,,,
O=C(Nc1ccccc1Oc1ccc(C(=O)O)c(C(=O)O)c1)c1cc(I)ccn1,39,468,,,,,
O=C(Nc1c(F)cccc1Oc1ccc(C(=O)O)c(C(=O)O)c1)c1cc(Cl)ccn1,10,60,< 9,< 9,44,1,4.1
O=C(Nc1cc2ccccc2cc1Oc1ccc(C(=O)O)c(C(=O)O)c1)c1ccccn1,167,844,,,,,
O=C(Nc1cc(F)ccc1Oc1ccc(C(=O)O)c(C(=O)O)c1)c1cc([N+](=O)[O-])ccn1,13,109,,,,,
CCc1ccnc(C(=O)Nc2cc3ccccc3cc2Oc2ccc(C(=O)O)c(C(=O)O)c2)c1,4,29,,,,,
COc1ccnc(C(=O)Nc2c(F)cccc2Oc2ccc(C(=O)O)c(C(=O)O)c2)c1,11,110,,,,,
O=C(Nc1c(F)cccc1Oc1ccc(C(=O)O)c(C(=O)O)c1)c1cccc([N+](=O)[O-])c1,250,1860,302,207,,,
O=C(Nc1cc2ccccc2cc1Oc1ccc(C(=O)O)c(C(=O)O)c1)c1cc(Cl)ccn1,2,12,,,,,
O=C(Nc1c(F)cccc1Oc1ccc(C(=O)O)c(C(=O)O)c1)c1cc([N+](=O)[O-])ccn1,1,9,,,,,
Cc1ccnc(C(=O)Nc2cc3ccccc3cc2Oc2ccc(C(=O)O)c(C(=O)O)c2)c1,10,57,,,,,
O=C(Nc1ccccc1Oc1ccc(C(=O)O)c(C(=O)O)c1)c1cc(Cl)ccn1,17,181,16,14,,,
O=C(Nc1cc2ccccc2cc1Oc1ccc(C(=O)O)c(C(=O)O)c1)c1cc([N+](=O)[O-])ccn1,1,3,,,,,
O=C(Nc1cc2ccccc2cc1Oc1ccc(C(=O)O)c(C(=O)O)c1)c1cc(C(F)(F)F)ccn1,12,80,,,,,
COc1ccnc(C(=O)Nc2cc3ccccc3cc2Oc2ccc(C(=O)O)c(C(=O)O)c2)c1,2,12,,,,,
O=C(Nc1cc2ccccc2cc1Oc1ccc(C(=O)O)c(C(=O)O)c1)c1cccc([N+](=O)[O-])c1,23,140,,,,,
